“Also recorded” adds a separate entry of the source. Where two headings read alike, the source gives them in different places.

Series [1] has as its system TNF-α, IL-6 and PGE2 production in RAW 264.7 cells. Briefly: Inflammatory cytokines production assay in RAW 264.7 macrophage cells. The series is classed as cell-based, Mouse. As to conditions: RAW 264.7, naproxen 0.5 mM before FUS1-nanoparticle. The protocol: The following day, tissue culture medium was replaced with fresh 0.2% medium and incubated overnight at 37° C. and 5% CO2. […] Assay was performed according to manufacturer's protocol.

Series [2] concerns lung tumor cells. Conditions: luc-nanoparticles in the presence of naproxen.
In series [3] the test system is luciferase expression. As to the kind of experiment: Luciferase transgene expression in cells transfected with luc-nanoparticles. The format is cell-based, Human. Conditions: naproxen prior to luc-nanoparticles; 2 h, 4 h, 15 h.
Method: To determine the effect of inhibitors on transgene expression, cells were transfected with a marker gene, luciferase (luc), complexed with DOTAP:Chol. nanoparticles (luc-nanopartilces). All other experimental conditions were the same as described above. Luciferase expression was determined using the luciferase assay kit (Promega, Madison, Wis.) as previously described (Ramesh et al., 2001b). Luciferase expression was expressed as relative light units per mg of protein (RLU/mg). Assays were performed in triplicates. Experiments were performed two times and the results represented as the average of two separate experiments.
Series [4] relates to proinflammatory cytokines (TNF, IL-1, IL-6, IFN-γ). The format is in vivo, C3H mice. The protocol: In vivo treatment of immunocompetent animals by intravenous injection of DOTAP:Cholesterol-FUS1 complex. Female C3H mice were divided into 2 groups (n=15/group). […] Complexes were injected intravenously via the tail vein using a total volume of 200 μl. […] Blood from animals in all groups were collected at 2, 4, 6, and 15 h after injection of liposome-DNA complex, and analyzed for proinflammatory cytokines (TNF, IL-1, IL-6, IFN-γ) by ELISA (R&D Systems).

Series [5] deals with NFκB and STAT3 DNA binding. Briefly: Electrophoretic mobility shift assay of lung nuclear extracts for NFκB and STAT3. The format is in vivo, C3H mice. Conditions: in the presence of naproxen. A general note: A gel shift assay detects complexes by their altered migration in electrophoresis.
Method: Electrophoretic mobility shift assay. […] Santa Cruz Biotechnology, Santa Cruz, Calif.) and NF-κB consensus oligonucleotide […] These probes were end-labelled with [γ-^32P]ATP(3000 Ci/mmol at 10 mCi/ml; Amersham Biosciences, Sunnyvale, Calif.). DNA binding reactions were performed at room temperature in a 25-μl reaction mixture containing 6-μl of nuclear extract and 5 μl of 5× binding buffer (20% (w/v) Ficoll, 50 mM HEPES (pH 7.9), 5 mM EDTA, 5 mM DTT). […] Samples were electrophoresed through 5.5% polyacrylamide gels in 0.5×TBE at 160 V for 3 h, dried under vacuum, and exposed to X-ray film after overnight expose with hyperfilm at -80° C. The gel was then dried and subjected to autoradiography. […] The minced tissue was homogenized using a Dounce homogenizer and centrifuged at 14,000 rpm at 4° C. for 10 min. […] The supernatant (nuclear extract) was collected and stored at -80° C. until use. The protein concentrationm was measured by the method of Bradford with BSA as the standard. […] Briefly, Double-stranded oligonucleotides consensus NFκB (Promega) were end-labelled with [γ-^32P]-ATP using T4 polynucleotide kinase. […] The bands were visualized by autoradiography.
The conditions of series [6]: 15 mg/kg orally. As to the method: At indicated times after injection, blood and organ was collected at different time points. TNF-α, IL-6, IL-1a and IFN-γ levels in serum (C) and TNF-α, IL-6 (D) in organs were determined using specific immunoassay kit. Data represent means±SD.
Animals were euthanized at 2, 4, 6, and 15 hours after treatment, and blood was collected. Blood samples were stored at −80° C. until all samples were collected. They were then submitted to the Drug Analysis Core Facility at M.D. Anderson Cancer Center.

Series [7] deals with PGE2 production. Briefly: PGE2 production assay in cells transfected with FUS1-nanoparticles. The series is classed as cell-based, Human. As to conditions: naproxen 0.5 mM prior to FUS1-nanoparticles. As to the method: PGE2 production assay. Cells were seeded in 6-well plates (1-3×10^6 cells/well) and incubated at 37° C. Twenty-four hours later, the culture medium was replaced and replenished with fresh medium supplemented with 0.2% serum. […] At 3.5 h after treatment cells were transfected with FUS1-nanoparticles (2.5 μg DNA). The amount of PGE2 secreted into the culture supernatant at various time (2 h, 4 h, and 15 h) points was determined using the PGE2 enzyme immunoassay (Cayman Chemicals, Ann Arbor, Mich.). Assay was performed according to manufacturer's protocol.

Series [8] relates to C3H mice. The format is in vivo. As to conditions: for protection: alive on day 14. As to the method:
In vivo treatment of immunocompetent animals by intravenous injection of DOTAP:Cholesterol-FUS1 complex. Female C3H mice were divided into 3 groups (n=5/group). […] Complexes were injected intravenously via tail vein in a total volume of 200 μl. Animals were monitored initially at 1, 2, 6, 24, 48 hr and later every day until day 14. Animals that appeared morbid or moribund were euthanized by CO2 inhalation and various organs (lung, liver, kidneys, spleen, heart) were collected in buffered formalin and submitted for histopathological examination. Organs were also collected from animals that were dead, and these were submitted for histopathological analyses.

Series [9] relates to AP-1. Briefly: AP-1 DNA binding activity, electrophoretic mobility shift assay in MRC-9 cells. Conditions: naproxen pretreatment before FUS1-nanoparticles. The series is classed as cell-based, Human.
Method: Electrophoretic mobility shift assay (EMSA). MRC-9 cells were seeded in six well plates at 1.3×10^6 cells/well for EMSA. […] Cells were harvested at 2, 4 and 15 h after transfection and nuclear extracts prepared. To the nuclear extracts (10 μg), DNA binding reaction mixture containing [γ-^32P]-ATP radiolabeled AP-1 oligonucleotide and 0.5 μg poly (dI-dC) were added and incubated at 25° C. for 30 min in 5× gel shift binding buffer [20% glycerol, 5 mM MgCl2 2.5 mM EDTA, 2.5 mM DTT, 250 mM NaCl, 50 mM Tris-HCl (pH 7.5)]. The complexes were subsequently resolved on 5% nondenaturing polyacrylamide gels in 0.5×Tris-borate EDTA buffer for 1 h 30 min at 300 V. The bands were visualized by autoradiography.
Series [10] has as its system TNF-α, IL-6 in lungs, liver and spleen. Briefly: Organ cytokine levels (lungs, liver, spleen) after FUS1-nanoparticle with or without naproxen (ELISA). As to conditions: naproxen 15 mg/kg orally pretreatment. The series is classed as in vivo, C3H mice. As to the method: Cytokine profiles, Organ toxicity and Signalling molecules in C3H mice. To determine the cytokine profile, organ toxicity, signaling molecules responsible for inflammation, experiments were performed using immunocompetent female C3H mice. […] The amount of FUS1 plasmid injected was 100 μg. Serum and organ cytokine levels were determined by ELISA for murine TNF-α and murine Il-6. At indicated times after injection, blood was obtained via aspiration after right heart puncture. The blood was allowed to stand for 4 hours at 4° C. and then was centrifuged twice at 15,000 g for 10 minutes at 4° C. The supernatants (serum) were kept at −80° C. until used. Cytokine concentrations were quantified using specific ELISA kits (R&D systems) according to manufacturer's instructions. Organs were collected at 2, 4, and 15 h and were snap-frozen in liquid nitrogen and stored at […] until time of ELISA and Western blot analysis. At the time of ELISA, organs were slowly thawed on ice. The lung, liver and spleen was homogenized in 750 μl PBS containing a cocktail of protease inhibitors using a tissue homogenizer. The cytoplasmic fraction was isolated as the supernatant fraction following centrifugation at 15,000 g for 20 min at 4° C. The supernatant was used for the determination of TNF-α and IL-6 were quantitated by ELISA kits purchased from R&D Sytems and Biosource.fraction.

Series [11] deals with p38MAPK, pJNK, p44/42MAPK, pATF2, pc-JUN, COX-2 in lung tissues. Briefly: Inflammation-associated signaling molecules in lung tissues after FUS1-nanoparticles (western blot). The series is classed as in vivo, C3H mice. Conditions: naproxen prior to FUS1-nanoparticles.

For `COc1ccc2cc([C@H](C)C(=O)O)ccc2c1` [Naproxen, naproxen], the “production of TNF-α, IL-6 and PGE2” value in [1] is “suppressed”. Further, the transgene expression entry in series [2] is given as “Enhanced transgene expression”. In addition, the “luciferase activity (RLU/mg protein), naproxen treated vs untreated” value in series [3] was “greatly increased; also recorded: slight increase in luciferase activity”. In addition, in series [4] (naproxen 15 mg/kg 2 hour before DOTAP:Chol-FUS1 complex (100 μg DNA) i.v., serum), the “reduction in all of the cytokine levels” value is given as 50%. Moreover, the “proinflammatory cytokine production, effect of naproxen” value in series [4] (naproxen 15 mg/kg before complex) is recorded as “significant suppression of proinflammatory cytokine production”. For the same molecule, in [5], the “activation of NFκB and STAT3 in lung” value was “suppressed”. Also, in [6], the “maximum levels of naproxen in the blood” value is 3.5 μg/200 μl of blood and the “time by which naproxen reached baseline levels” value was at most 15 h. For the same molecule, the “inhibition of PGE2” value in [7] is on record as “almost complete; also recorded: significantly inhibition in PGE2 levels”. The “secreted PGE2 levels” value in series [7] (2-15 h) was 33 to 120 pg/mL. Also, the protection in series [8] (naproxen 5 mg/kg orally 2 hour prior to complex (100 μg DNA) i.v.) turned out to be 60%. Also, the protection in series [8] (naproxen 15 mg/kg orally 2 hour prior to complex (100 μg DNA) i.v.) is 100%. Further, the “Diagnosis (histopathology)” value in series [8] (naproxen before complex, 15 hr) is reported as “almost completely prevented all the inflammatory features except moderate lymphoid atrophy spleen”. For the same molecule, the “AP-1 DNA binding activity” value in series [9] was “inhibition of AP-1 activity”. For the same molecule, the “TNF-α, IL-6 levels in lungs, liver and spleen” value in series [10] is given as “significantly inhibited”. Besides, the “activation of signaling molecules in lung” value in series [11] is “markedly suppressed”.

Values taken from patent US20050143336A1 (priority 2003, published 2005).
